# Where “and” joins values, the source holds several entries; their conditions need not be identical. Identical values can stand only once. Bridge positions count the residues as written; N and C are the ends. Square brackets hold non-standard residues; d marks the D form. Peptide text beside a SMILES is read from it. * marks the point of attachment. Octanoyl(6-Me) = CCC(C)CCCCC(=O)*; Dab = NCC[CH](N)C(=O)O
# Key:
# Format in all cases: cell-based, human
# [1] = system: non-specific IFN-γ production in blood containing lipopolysaccharides (LPS); assay: Effect of polymyxin B on non-specific IFN-γ production in blood containing LPS (Example 3)
# Description: In this Example, blood from 8 healthy donors was collected in Li-Heparin tubes. Aliquots of 1.0 mL were prepared in 13/75 mm plain gel tubes. An endotoxin, lipopolysaccharides (LPS), was added to each tube of blood at a concentration of 1 μg/mL. Various concentrations of polymyxin B were added to each of the tubes. The blood was then incubated at 37° C. for 20 hours before the tubes were centrifuged and the IFN-γ concentration of the plasma determined by ELISA.
# [2] = system: IFN-γ production in blood (CMV antigen); assay: Effect of polymyxin B on IFN-γ production in blood in QuantiFERON-CMV tubes (Example 2)
# Description: The effect of polymyxin B on IFN-γ production was assessed. Blood from 8 healthy donors was added to QuantiFERON-CMV blood collection tubes (1.0 mL per tube). One tube for each donor had 1.0 μg/mL of polymyxin B added, whilst the second tube served as a control. Blood was incubated at 37° C. for 20 hours before the tubes were centrifuged and the resultant concentration of IFN-γ determined by ELISA.
# [3] = system: non-specific IFN-γ production in blood from BD heparin tube (endotoxin contamination); assay: Polymyxin B in endotoxin-contaminated BD heparin tubes, IFN-γ assay (Example 4)
# Description: Blood was taken from four healthy donors collected in Li-Heparin tubes. […] Tubes were mixed to resolublize the heparin and to ensure blood contact with tube plastic.
# Aliquots of 1.0 mL from each heparin tube type were then transferred to 13/75 mm plain gel tubes. The blood was then incubated at 37° C. for 20 hours before the tubes were centrifuged and the IFN-γ concentration of the plasma determined by ELISA.
# [4] = system: immune response to lipopolysaccharide (LPS), IFN-γ in blood; assay: Effect of sushi peptide on immune response of blood to LPS (Example 6, FIGS. 1-2); conditions: sushi peptide 0-10 μg/ml, antigens CMV and tetanus toxoid, FIGS. 2a-2c
# Description: Heparinized blood samples were collected into Li-Hep Vacuette (registered trade mark) tubes (Greiner Bio-one, Germany).
# Aliquots of 1 ml of the blood samples were incubated with various concentrations of Lipopolysaccharide (Sigma, Australia) and a sushi peptide ([…]) [SEQ ID NO:1] (American Peptide Company, California) in nil blood collection tubes (QuantiFERON [registered trade mark]-TB Gold In-Tube, Cellestis Ltd, Australia) either as supplied or spiked with tetanus toxoid (1001 fu/ml), or in CMV tubes (QuantiFERON-CMV, Cellestis Ltd, Australia).
# Stimulated blood samples were incubated for 16-24 hr at 37° C., after which the tubes were centrifuged and the plasma harvested. The amount of IFN-γ present in each plasma sample was then quantified using the QuantiFERON (registered trade mark)-TB Gold ELISA (Cellestis Limited, Australia) as per the manufacturer's instructions.
# ELISA optical density values for IFN-γ standards run on each ELISA plate were used to construct a standard curve from which the amount of IFN-γ present in each of the test plasma samples was converted to IU/mL values.
# [5] = system: IFN-γ production in stimulated whole blood
compound,measurement,setting,value
"CCC(C)CCCCC(=O)NC(CCN)C(=O)NC(C(=O)NC(CCN)C(=O)NC1CCNC(=O)C(C(C)O)NC(=O)C(CCN)NC(=O)C(CCN)NC(=O)C(CC(C)C)NC(=O)C(Cc2ccccc2)NC(=O)C(CCN)NC1=O)C(C)O (stereo not drawn) [polymyxin B, N-[4-amino-1-[[1-[[4-amino-1-oxo-1-[[6,9,18-tris(2-aminoethyl)-15-benzyl-3-(1-hydroxyethyl)-12-(2-methylpropyl)-2,5,8,11,14,17,20-heptaoxo-1,4,7,10,13,16,19-heptazacyclotricos-21-yl]amino]butan-2-yl]amino]-3-hydroxy-1-oxobutan-2-yl]amino]-1-oxobutan-2-yl]-6-methyloctanamide] ({Octanoyl(6-Me)}-[Dab]T[Dab][Dab][Dab]FL[Dab][Dab]T; lactam 4-C; configuration not given here)","IFN-γ concentration, 1 μg/mL LPS, polymyxin 0.1 ug/mL","[1]; blood + 1 μg/mL LPS, polymyxin B 0.1 ug/mL, 37° C. 20 hours, one line per subject",0.67 IU/mL and 0.44 IU/mL and 9.28 IU/mL and 2.87 IU/mL and 0.32 IU/mL and 2.00 IU/mL and 0.79 IU/mL and 0.41 IU/mL
same,"IFN-γ concentration, 1 μg/mL LPS, polymyxin 1 ug/mL","[1]; blood + 1 μg/mL LPS, polymyxin B 1 ug/mL, 37° C. 20 hours, one line per subject",0.41 IU/mL and 0.22 IU/mL and 3.31 IU/mL and 2.57 IU/mL and 0.21 IU/mL and 1.17 IU/mL and 0.50 IU/mL and 0.14 IU/mL
same,"IFN-γ concentration, 1 μg/mL LPS, polymyxin 10 ug/mL","[1]; blood + 1 μg/mL LPS, polymyxin B 10 ug/mL, 37° C. 20 hours, one line per subject",0.25 IU/mL and 0.11 IU/mL (2×) and 1.96 IU/mL and 1.41 IU/mL and 0.36 IU/mL and 0.32 IU/mL and 0.12 IU/mL
same,"IFN-γ concentration, 1 μg/mL LPS, polymyxin 100 ug/mL","[1]; blood + 1 μg/mL LPS, polymyxin B 100 ug/mL, 37° C. 20 hours, one line per subject",0.02 IU/mL (3×) and 0.05 IU/mL (2×) and 0.04 IU/mL and 0.18 IU/mL and 0.06 IU/mL
same,effect on non-specific IFN-γ production,[1]; samples containing endotoxin (LPS 1 μg/mL),caused a reduction in non-specific IFN-γ production
same,effect on the production of IFN-γ,"[2]; 1 μg/mL polymyxin B, CMV antigen",does not adversely affect the production of IFN-γ
same,"IFN-γ concentration, CMV + PMB 1.0 μg/mL","[2]; QuantiFERON-CMV tube, 1.0 μg/mL polymyxin B, 37° C. 20 hours, ELISA, one line per subject",8.35 IU/mL and 0.04 IU/mL (2×) and 0.08 IU/mL and 0.51 IU/mL and 1.53 IU/mL and 24.28 IU/mL and 0.05 IU/mL and 2.3 IU/mL and 0.55 IU/mL
same,effect on non-specific IFN-γ production in BD heparin tubes,"[3]; 100 ug/mL polymyxin B, BD heparin tubes known to contain endotoxin",significantly reduced
same,"IFN-gamma, BD Heparin Tube + 100 μg/mL Polymyxin B","[3]; blood from BD heparin tube (endotoxin contaminated) with 100 μg/mL polymyxin B, 37° C. 20 hours, one line per subject",0.51 IU/mL and 0.11 IU/mL (2×) and 0.24 IU/mL
HAEHKVKIGVEQKYGQFPQGTEVTYTCSGNYFLM (Sushi peptide),effect on immune response to LPS,[4],inhibition of an immune response to lipopolysaccharide (LPS)
polyinosinic acid-polycytidylic acid [PolyI:C],IFN-γ response to poly(I:C) alone,[5],relatively small
same,effect on IFN-γ production with antigen,[5],increases the IFN-γ production
